# Experimental data as given in PubChem BioAssay (NCI).
#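 Assay format: 96-well plates, 48-hour exposure. GI50 = concentration required for 50% inhibition of growth. Definition used: TGI = concentration required for complete inhibition of growth.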
# Key:
# Test in all cases: inhibition of tumour cell growth, NCI panel, 48 h
# MDA-MB-435 = tested on: MDA-MB-435
# SW-620 colon = tested on: SW-620 colon
# SF-539 CNS = tested on: SF-539 CNS
# OVCAR-4 ovarian = tested on: OVCAR-4 ovarian
# SF-295 CNS = tested on: SF-295 CNS
# HT29 colon = tested on: HT29 colon
# UACC-257 melanoma = tested on: UACC-257 melanoma
# HOP-62 NSCLC = tested on: HOP-62 NSCLC
# MCF7 breast = tested on: MCF7 breast
# TK-10 renal = tested on: TK-10 renal
# MALME-3M melanoma = tested on: MALME-3M melanoma
# NCI-H23 lung = tested on: NCI-H23 lung
# SN12C renal = tested on: SN12C renal
# K-562 leukemia = tested on: K-562 leukemia
# SNB-19 CNS = tested on: SNB-19 CNS
# HCC-2998 colon = tested on: HCC-2998 colon
# 786-0 renal = tested on: 786-0 renal
# CAKI-1 renal = tested on: CAKI-1 renal
# LOX IMVI melanoma = tested on: LOX IMVI melanoma
# OVCAR-5 ovarian = tested on: OVCAR-5 ovarian
# ACHN renal = tested on: ACHN renal
# T-47D breast = tested on: T-47D breast
# HS 578T breast = tested on: HS 578T breast
# A549 NSCLC = tested on: A549 NSCLC
# SR leukemia = tested on: SR leukemia
# RXF 393 renal = tested on: RXF 393 renal
# RPMI-8226 leukemia = tested on: RPMI-8226 leukemia
# NCI-H522 lung = tested on: NCI-H522 lung
# UACC-62 melanoma = tested on: UACC-62 melanoma
# DU-145 prostate = tested on: DU-145 prostate
# KM12 colon = tested on: KM12 colon
# COLO 205 colon = tested on: COLO 205 colon
# NCI-H226 lung = tested on: NCI-H226 lung
# MDA-MB-468 breast = tested on: MDA-MB-468 breast
# OVCAR-8 ovarian = tested on: OVCAR-8 ovarian
# MOLT-4 leukemia = tested on: MOLT-4 leukemia
# IGROV1 ovarian = tested on: IGROV1 ovarian
# HL-60(TB) leukemia = tested on: HL-60(TB) leukemia
# HOP-92 NSCLC = tested on: HOP-92 NSCLC
# BT-549 breast = tested on: BT-549 breast
# A498 renal = tested on: A498 renal
# NCI/ADR-RES ovarian = tested on: NCI/ADR-RES ovarian
# SF-268 CNS = tested on: SF-268 CNS
# SK-MEL-28 melanoma = tested on: SK-MEL-28 melanoma
# OVCAR-3 ovarian = tested on: OVCAR-3 ovarian
# PC-3 prostate = tested on: PC-3 prostate
# SK-MEL-5 melanoma = tested on: SK-MEL-5 melanoma
# HCT-15 colon = tested on: HCT-15 colon
# U251 CNS = tested on: U251 CNS
# CCRF-CEM leukemia = tested on: CCRF-CEM leukemia
# NCI-H460 lung = tested on: NCI-H460 lung
# SK-OV-3 ovarian = tested on: SK-OV-3 ovarian
smiles,measurement,setting,value
O=C(Nc1cc(Cl)cc(Cl)c1)Nc1cc(Cl)cc(Cl)c1,GI50,MDA-MB-435,3.11 µM
same,TGI,MDA-MB-435,> 100 µM
same,GI50,SW-620 colon,3.4 µM
same,TGI,SW-620 colon,> 100 µM
same,GI50,SF-539 CNS,2.26 µM
same,TGI,SF-539 CNS,6.07 µM
same,GI50,OVCAR-4 ovarian,3.54 µM
same,TGI,OVCAR-4 ovarian,> 100 µM
same,GI50,SF-295 CNS,1.74 µM
same,TGI,SF-295 CNS,4.4 µM
same,GI50,HT29 colon,2.88 µM
same,TGI,HT29 colon,14.9 µM
same,GI50,UACC-257 melanoma,2.35 µM
same,TGI,UACC-257 melanoma,6.42 µM
same,GI50,HOP-62 NSCLC,2.61 µM
same,TGI,HOP-62 NSCLC,8.74 µM
same,GI50,MCF7 breast,2.28 µM
same,TGI,MCF7 breast,7.37 µM
same,GI50,TK-10 renal,3.27 µM
same,TGI,TK-10 renal,> 100 µM
same,GI50,MALME-3M melanoma,1.92 µM
same,TGI,MALME-3M melanoma,5.13 µM
same,GI50,NCI-H23 lung,1.86 µM
same,TGI,NCI-H23 lung,5.55 µM
same,GI50,SN12C renal,2.66 µM
same,TGI,SN12C renal,9.92 µM
same,GI50,K-562 leukemia,2.5 µM
same,TGI,K-562 leukemia,12.8 µM
same,GI50,SNB-19 CNS,3.05 µM
same,TGI,SNB-19 CNS,> 100 µM
same,GI50,HCC-2998 colon,3.13 µM
same,TGI,HCC-2998 colon,> 100 µM
same,GI50,786-0 renal,3 µM
same,TGI,786-0 renal,> 100 µM
same,GI50,CAKI-1 renal,2.79 µM
same,TGI,CAKI-1 renal,> 100 µM
same,GI50,LOX IMVI melanoma,2.1 µM
same,TGI,LOX IMVI melanoma,4.54 µM
same,GI50,OVCAR-5 ovarian,2.91 µM
same,TGI,OVCAR-5 ovarian,> 100 µM
same,GI50,ACHN renal,2.75 µM
same,TGI,ACHN renal,> 100 µM
same,GI50,T-47D breast,3.04 µM
same,TGI,T-47D breast,> 100 µM
same,GI50,HS 578T breast,2.69 µM
same,TGI,HS 578T breast,8.47 µM
same,GI50,A549 NSCLC,2.02 µM
same,TGI,A549 NSCLC,> 100 µM
same,GI50,SR leukemia,1.72 µM
same,TGI,SR leukemia,4.1 µM
same,GI50,RXF 393 renal,2.56 µM
same,TGI,RXF 393 renal,8.66 µM
same,GI50,RPMI-8226 leukemia,0.861 µM
same,TGI,RPMI-8226 leukemia,3.97 µM
same,GI50,NCI-H522 lung,1.23 µM
same,TGI,NCI-H522 lung,5.22 µM
same,GI50,UACC-62 melanoma,2.48 µM
same,TGI,UACC-62 melanoma,14.3 µM
same,GI50,DU-145 prostate,3.89 µM
same,TGI,DU-145 prostate,> 100 µM
same,GI50,KM12 colon,2.97 µM
same,TGI,KM12 colon,9.44 µM
same,GI50,COLO 205 colon,1.99 µM
same,TGI,COLO 205 colon,3.5 µM
same,GI50,NCI-H226 lung,2.95 µM
same,TGI,NCI-H226 lung,> 100 µM
same,GI50,MDA-MB-468 breast,2.27 µM
same,TGI,MDA-MB-468 breast,6.48 µM
same,GI50,OVCAR-8 ovarian,2.9 µM
same,TGI,OVCAR-8 ovarian,> 100 µM
same,GI50,MOLT-4 leukemia,1.82 µM
same,TGI,MOLT-4 leukemia,4.42 µM
same,GI50,IGROV1 ovarian,3.52 µM
same,TGI,IGROV1 ovarian,> 100 µM
same,GI50,HL-60(TB) leukemia,1.57 µM
same,TGI,HL-60(TB) leukemia,4.07 µM
same,GI50,HOP-92 NSCLC,1.99 µM
same,TGI,HOP-92 NSCLC,6.02 µM
same,GI50,BT-549 breast,2.45 µM
same,TGI,BT-549 breast,7.85 µM
same,GI50,A498 renal,2.24 µM
same,TGI,A498 renal,6.51 µM
same,GI50,NCI/ADR-RES ovarian,2.17 µM
same,TGI,NCI/ADR-RES ovarian,8.41 µM
same,GI50,SF-268 CNS,3.31 µM
same,TGI,SF-268 CNS,> 100 µM
same,GI50,SK-MEL-28 melanoma,2.75 µM
same,TGI,SK-MEL-28 melanoma,> 100 µM
same,GI50,OVCAR-3 ovarian,2.92 µM
same,TGI,OVCAR-3 ovarian,> 100 µM
same,GI50,PC-3 prostate,2.42 µM
same,TGI,PC-3 prostate,> 100 µM
same,GI50,SK-MEL-5 melanoma,1.74 µM
same,TGI,SK-MEL-5 melanoma,3.28 µM
same,GI50,HCT-15 colon,2.18 µM
same,TGI,HCT-15 colon,> 100 µM
same,GI50,U251 CNS,2.75 µM
same,TGI,U251 CNS,11.5 µM
same,GI50,CCRF-CEM leukemia,2.55 µM
same,TGI,CCRF-CEM leukemia,8.04 µM
same,GI50,NCI-H460 lung,2.11 µM
same,TGI,NCI-H460 lung,> 100 µM
same,GI50,SK-OV-3 ovarian,2.4 µM
same,TGI,SK-OV-3 ovarian,6.31 µM
